Patent publication US20080145313A1, “Compositions and Methods for the Treatment and Prevention of Neoplastic Disorders” (Genesis Research & Development Corporation Limited, priority 2006, published 2008)

Tested on: target transcript mRNA in A549 cells
Test: Level of mRNA of target transcript in A549 cells by quantitative RT-PCR (Tables 12 and 13)
Assay type: cell-based, human
Conditions: 24 h post-transfection; for mRNA knockdown of energy and metabolism gene target transcript, 10 nM: 10 nM siRNA
Method: A549 cells were transfected as described before with 0.1, 1.0 and 10 nM siRNA as listed in Tables 10 and 11 and the relative mRNA levels quantified 24 h post-transfection. RNA was purified from cells using Trizol® extraction as per the manufacturer's protocol (Invitrogen). cDNA was prepared by digesting approximately 200 ng purified RNA with DNAse I (Invitrogen) for 15 minutes at room temperature, followed by 15 minutes at 65° C. in the presence of 25 mM EDTA. 30 ng random primers were added and incubated for 10 minutes at 65° C., 1 minute on ice; Superscript® III polymerase (Invitrogen) was added in presence of 5 nM DTT (Invitrogen) and 1 mM deoxyribonucleotides (Invitrogen), and the reaction incubated at 25° C. for 5 minutes, followed by an hour at 50° C. cDNA was diluted 1:3 in 10 mM Tris pH 7.0, and quantitative RT-PCR carried out on an ABI Prism 7900HT (Applied Biosciences, Inc., Foster City, Calif.) using FastStart TaqMan SYBRGreen (Roche, Basel, Switzerland) or Platinum SYBR Green (Invitrogen) and 360 nM of the primers specific for gene targets and housekeeping genes HPRT and Lamin. Reduction in target mRNA levels following siRNA transfection are given in Tables 12 and 13, together with the gene specific primer sequences. Primer sequences used for the housekeeping genes HPRT and Lamin are given in SEQ ID NO: 4885-4888.

| Substance | mRNA knockdown of energy and metabolism gene target transcript, 0.1 nM (0.1 nM siRNA) | mRNA knockdown of energy and metabolism gene target transcript, 1 nM (1 nM siRNA) | mRNA knockdown of energy and metabolism gene target transcript, 10 nM | mRNA knockdown of transporter gene target transcript, 0.1 nM (0.1 nM siRNA) | mRNA knockdown of transporter gene target transcript, 1 nM (1 nM siRNA) |
| --- | --- | --- | --- | --- | --- |
| 3534 (GGGTAGGAGCCCTACACTAGG; chemistry not given here) [compound 3534] | ++ (70-90% mRNA knockdown) | ++ (70-90% mRNA knockdown) | – | – | – |
| 3557 (CTACGGATGTTGGGATCATTATTA; chemistry not given here) [compound 3557] | ++ (70-90% mRNA knockdown) | ++ (70-90% mRNA knockdown) | – | – | – |
| 3540 (AGCCAAGGGTAGGAGCCCTACACTAGG; chemistry not given here) [compound 3540] | − (<50% mRNA knockdown) | − (<50% mRNA knockdown) | − (<50% mRNA knockdown) | – | – |
| 3575 (AGCGGTTTTTCTCCAAGTACTC; chemistry not given here) [compound 3575] | +++ (>90% mRNA knockdown) | +++ (>90% mRNA knockdown) | – | – | – |
| 3553 (TGAAGGCAACTACCGCGAGCTGCGCTGGTT; chemistry not given here) [compound 3553] | ++ (70-90% mRNA knockdown) | ++ (70-90% mRNA knockdown) | – | – | – |
| 1696 (AACGTGAAGCTCCCTGACGCCTA; chemistry not given here) [compound 1696] | − (<50% mRNA knockdown) | − (<50% mRNA knockdown) | – | – | – |
| 3562 (TGCGGCTACGGATGTTGGGATCATTATTA; chemistry not given here) [compound 3562] | ++ (70-90% mRNA knockdown) | +++ (>90% mRNA knockdown) | – | – | – |
| 1691 (TTGCCAACAGGATCTTCGGCCCCATCTG; chemistry not given here) [compound 1691] | − (<50% mRNA knockdown) | ++ (70-90% mRNA knockdown) | – | – | – |
| 3580 (AGTGAAGCGGTTTTTCTCCAAGTACTC; chemistry not given here) [compound 3580] | ++ (70-90% mRNA knockdown) | ++ (70-90% mRNA knockdown) | – | – | – |
| 3586 (AAACAGAGGAGCAAGATACAGGC; chemistry not given here) [compound 3586] | ++ (70-90% mRNA knockdown) | +++ (>90% mRNA knockdown) | – | – | – |
| 3573 (TGGTCACCAGCAAGAACGGTGGGATTTACT; chemistry not given here) [compound 3573] | ++ (70-90% mRNA knockdown) | +++ (>90% mRNA knockdown) | – | – | – |
| 3558 (GCTACGGATGTTGGGATCATTATTA; chemistry not given here) [compound 3558] | − (<50% mRNA knockdown) | ++ (70-90% mRNA knockdown) | – | – | – |
| 3595 (ACAGGAAGATCCTGCTCATCAG; chemistry not given here) [compound 3595] | + (50-70% mRNA knockdown) | ++ (70-90% mRNA knockdown) | – | – | – |
| 3539 (GCCAAGGGTAGGAGCCCTACACTAGG; chemistry not given here) [compound 3539] | − (<50% mRNA knockdown) | − (<50% mRNA knockdown) | − (<50% mRNA knockdown) | – | – |
| 3577 (GAAGCGGTTTTTCTCCAAGTACTC; chemistry not given here) [compound 3577] | ++ (70-90% mRNA knockdown) | +++ (>90% mRNA knockdown) | – | – | – |
| 1686 (AACAGGATCTTCGGCCCCATCTG; chemistry not given here) [compound 1686] | − (<50% mRNA knockdown) | − (<50% mRNA knockdown) | – | – | – |
| 3545 (ACTACCGCGAGCTGCGCTGGTT; chemistry not given here) [compound 3545] | ++ (70-90% mRNA knockdown) | ++ (70-90% mRNA knockdown) | +++ (>90% mRNA knockdown) | – | – |

| Substance | mRNA knockdown of energy and metabolism gene target transcript, 0.1 nM (0.1 nM siRNA) | mRNA knockdown of energy and metabolism gene target transcript, 1 nM (1 nM siRNA) | mRNA knockdown of energy and metabolism gene target transcript, 10 nM | mRNA knockdown of transporter gene target transcript, 0.1 nM (0.1 nM siRNA) | mRNA knockdown of transporter gene target transcript, 1 nM (1 nM siRNA) |
| --- | --- | --- | --- | --- | --- |
| 3533 (AGATTGGAAGCCACCACATCAGTCTCAACA; chemistry not given here) [compound 3533] | − (<50% mRNA knockdown) | ++ (70-90% mRNA knockdown) | – | – | – |
| 3563 (ATGCGGCTACGGATGTTGGGATCATTATTA; chemistry not given here) [compound 3563] | ++ (70-90% mRNA knockdown) | +++ (>90% mRNA knockdown) | – | – | – |
| 3552 (GAAGGCAACTACCGCGAGCTGCGCTGGTT; chemistry not given here) [compound 3552] | + (50-70% mRNA knockdown) | ++ (70-90% mRNA knockdown) | – | – | – |
| 1688 (CCAACAGGATCTTCGGCCCCATCTG; chemistry not given here) [compound 1688] | + (50-70% mRNA knockdown) | ++ (70-90% mRNA knockdown) | – | – | – |
| 3560 (CGGCTACGGATGTTGGGATCATTATTA; chemistry not given here) [compound 3560] | ++ (70-90% mRNA knockdown) | ++ (70-90% mRNA knockdown) | – | – | – |
| SEQ ID NO: 4914: siRNA targeting SLC19A2 (ThTr1) (chain 1 TTATATAACCAACTGCAAACACAGC; chain 2 UUAUAUAACCAACUGCAAACACAGC; chemistry not given here; one strand in two spellings) | – | – | – | ++ (70-90% mRNA knockdown) | +++ (>90% mRNA knockdown) |
| 3537 (CAAGGGTAGGAGCCCTACACTAGG; chemistry not given here) [compound 3537] | ++ (70-90% mRNA knockdown) | +++ (>90% mRNA knockdown) | +++ (>90% mRNA knockdown) | – | – |
| 3565 (AGCAAGAACGGTGGGATTTACT; chemistry not given here) [compound 3565] | ++ (70-90% mRNA knockdown) | +++ (>90% mRNA knockdown) | – | – | – |
| 3561 (GCGGCTACGGATGTTGGGATCATTATTA; chemistry not given here) [compound 3561] | + (50-70% mRNA knockdown) | ++ (70-90% mRNA knockdown) | – | – | – |
| 3555 (ACGGATGTTGGGATCATTATTA; chemistry not given here) [compound 3555] | ++ (70-90% mRNA knockdown) | ++ (70-90% mRNA knockdown) | – | – | – |
| 3592 (TGCCAAAAACAGAGGAGCAAGATACAGGC; chemistry not given here) [compound 3592] | − (<50% mRNA knockdown) | + (50-70% mRNA knockdown) | – | – | – |
| 3548 (GCAACTACCGCGAGCTGCGCTGGTT; chemistry not given here) [compound 3548] | ++ (70-90% mRNA knockdown) | ++ (70-90% mRNA knockdown) | +++ (>90% mRNA knockdown) | – | – |
| 1694 (CGTGAAGCTCCCTGACGCCTA; chemistry not given here) [compound 1694] | − (<50% mRNA knockdown) | − (<50% mRNA knockdown) | – | – | – |
| 3559 (GGCTACGGATGTTGGGATCATTATTA; chemistry not given here) [compound 3559] | ++ (70-90% mRNA knockdown) | ++ (70-90% mRNA knockdown) | – | – | – |
| 3538 (CCAAGGGTAGGAGCCCTACACTAGG; chemistry not given here) [compound 3538] | ++ (70-90% mRNA knockdown) | ++ (70-90% mRNA knockdown) | +++ (>90% mRNA knockdown) | – | – |
| 3546 (AACTACCGCGAGCTGCGCTGGTT; chemistry not given here) [compound 3546] | + (50-70% mRNA knockdown) | ++ (70-90% mRNA knockdown) | +++ (>90% mRNA knockdown) | – | – |
